The supplement of paper PMC11061612

How the values were obtained:
[1] = test system: BT-483 (Breast Carcinoma); test: combination Emax (second highest fraction inhibited in the dose matrix, 72 h); higher = more inhibition; extreme values may be limits of the assay
Summary of the method: (§1)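 After 24 hours at 37°C and 5% CO2 in 1536-well plates, cells in DMEM/F12 or RPMI plus 10% FBS received two-drug dose matrices for 72 hours. Viability came from CellTiter-Glo 2.0 luminescence and was scaled as inhibition, anchored at 0 by vehicle wells and at 1 by blank wells. Combination Emax is taken as the second-highest inhibition in the matrix, and Bliss excess as the observed combination effect less EA + EB − EA·EB, with EA and EB the single-agent effects.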

PA-1 (Ovarian Carcinoma) = test: as above
Summary of the method: as §1

[2] = test system: CAPAN-2 (Pancreatic Carcinoma); test: as above
Summary of the method: as §1

[3] = test system: CAL-29 (Bladder Carcinoma); test: as above
Summary of the method: as §1

[4] = test system: MDST8 (Colorectal Carcinoma); test: as above
Summary of the method: as §1

[5] = test system: TT (Thyroid Gland Carcinoma); test: as above
Summary of the method: as §1

[6] = test system: NCI-H64 (Small Cell Lung Carcinoma); test: as above
Summary of the method: as §1

[7] = test system: BT-483 (Breast Carcinoma); test: Bliss excess, mean over the matrix (fraction); higher = more synergy
Summary of the method: as §1
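Throughout, for Bliss excess, mean over the matrix: after 72 h of two-drug dosing.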

| SMILES | combination Emax [1] | combination Emax (PA-1 (Ovarian Carcinoma)) | combination Emax [2] | combination Emax [3] | combination Emax [4] | combination Emax [5] | combination Emax [6] | Bliss excess [7] |
| --- | --- | --- | --- | --- | --- | --- | --- | --- |
| CN(C)CCCOc1ccc(-c2ccc3ncc4c(c3c2)n(C2CCOCC2)c(=O)n4C)cn1 [AZD0156] + O=C(c1cc(Cc2n[nH]c(=O)c3ccccc23)ccc1F)N1CCN(C(=O)C2CC2)CC1 [Olaparib] (first compound max 3 µM, partner max 3 µM) | 0.313 | 0.479 | 0.291 | 0.319 | 0.361 | 0.237 | 0.145 | -0.0118 |
| C=CCn1c(=O)c2cnc(Nc3ccc(N4CCN(C)CC4)cc3)nc2n1-c1cccc(C(C)(C)O)n1 [AZD1775] + C1CN(CCC1(C(=O)N[C@@H](CCO)C2=CC=C(C=C2)Cl)N)C3=NC=NC4=C3C=CN4 [Capivasertib] (first compound max 3 µM, partner max 3 µM) | 0.391 | 0.866 | 0.513 | 0.839 | 0.704 | 0.264 | 0.92 | -0.0416 |
| COc1cc2c(cc1OCCCCCOc1cc3c(cc1OC)C(=O)N1C=C(C)C[C@H]1C=N3)N=C[C@@H]1CC(C)=CN1C2=O [SG3199] + O=C(c1cc(Cc2n[nH]c(=O)c3ccccc23)ccc1F)N1CCN(C(=O)C2CC2)CC1 [Olaparib] (first compound max 0.001 µM, 7x7, partner max 10 µM) |  | 0.324 | 0.0949 | 0.0858 | 0.138 | 0.187 | 0.0693 |  |
| CCc1c2c(nc3ccc(O)cc13)-c1cc3c(c(=O)n1C2)COC(=O)[C@]3(O)CC [SN-38] + CN(C)CCCOc1ccc(-c2ccc3ncc4c(c3c2)n(C2CCOCC2)c(=O)n4C)cn1 [AZD0156] (first compound max 0.3 µM, 7x7, partner max 1 µM) |  | 0.845 | 0.206 | 0.928 | 0.802 | 0.827 | 0.407 |  |
| C[C@@H](c1ccc2nccn2c1)n1nnc2ncc(-c3cnn(C)c3)nc21 [Savolitinib] + CC1(C)CCC(CN2CCN(c3ccc(C(=O)NS(=O)(=O)c4ccc(NCC5CCOCC5)c([N+](=O)[O-])c4)c(Oc4cnc5[nH]ccc5c4)c3)CC2)=C(c2ccc(Cl)cc2)C1 [Venetoclax] (first compound max 1 µM, 7x7, partner max 1 µM) |  | 0.276 | 0.0542 | 0.0725 | 0.176 | 0.173 | 0.23 |  |
| C[C@@H](c1ccc2nccn2c1)n1nnc2ncc(-c3cnn(C)c3)nc21 [Savolitinib] + Cc1c2c(nn1C)CSCc1cc(n(C)n1)CSc1cc(c3ccccc3c1)OCCCc1c(C(=O)O)n(C)c3c-2c(Cl)ccc13 [AZD5991] (first compound max 1 µM, 7x7, partner max 1 µM) |  | 0.885 | 0.166 | 0.186 | 0.159 | 0.244 | 0.0956 |  |
| Cn1cnc2c(F)c(Nc3ccc(Br)cc3Cl)c(C(=O)NOCCO)cc21 [Selumetinib] + C=CCn1c(=O)c2cnc(Nc3ccc(N4CCN(C)CC4)cc3)nc2n1-c1cccc(C(C)(C)O)n1 [AZD1775] (first compound max 10 µM, partner max 1 µM) |  | 0.875 | 0.419 | 0.654 | 0.609 | 0.305 | 0.858 |  |
| Cn1cnc2c(F)c(Nc3ccc(Br)cc3Cl)c(C(=O)NOCCO)cc21 [Selumetinib] + CC(C)n1c(=O)n(C)c2cnc3cc(F)c(-c4ccc(OCCCN5CCCCC5)nc4)cc3c21 [AZD1390] (first compound max 10 µM, 7x7, partner max 0.3 µM) |  | 0.276 | 0.378 | 0.216 | 0.537 | 0.201 | 0.105 |  |
| Cn1cnc2c(F)c(Nc3ccc(Br)cc3Cl)c(C(=O)NOCCO)cc21 [Selumetinib] + CCN(CCO)CCCOc1ccc2c(Nc3cc(CC(=O)Nc4cccc(F)c4)[nH]n3)ncnc2c1 [AZD2811] (first compound max 10 µM, 7x7, partner max 1 µM) |  | 0.654 | 0.407 | 0.389 | 0.63 | 0.453 | 0.516 |  |
| Cn1cnc2c(F)c(Nc3ccc(Br)cc3Cl)c(C(=O)NOCCO)cc21 [Selumetinib] + C[C@@H]1COCCN1C2=NC(=NC(=C2)C3(CC3)[S@](=N)(=O)C)C4=C5C=CNC5=NC=C4 [AZD6738] (first compound max 10 µM, 7x7, partner max 10 µM) |  | 0.855 | 0.428 | 0.696 | 0.784 | 0.316 | 0.808 |  |
| CC(=O)Nc1cccc(-n2c(=O)n(C3CC3)c(=O)c3c(Nc4ccc(I)cc4F)n(C)c(=O)c(C)c32)c1 [Trametinib] + Cc1nc(-c2cn3c(n2)-c2ccc(-c4cnn(C(C)(C)C(N)=O)c4)cc2OCC3)n(C(C)C)n1 [Taselisib] (first compound max 1 µM, 7x7, partner max 10 µM) |  | 1 | 0.578 | 0.956 | 0.865 | 0.666 | 0.477 |  |
| CC1(C)CCC(CN2CCN(c3ccc(C(=O)NS(=O)(=O)c4ccc(NCC5CCOCC5)c([N+](=O)[O-])c4)c(Oc4cnc5[nH]ccc5c4)c3)CC2)=C(c2ccc(Cl)cc2)C1 [Venetoclax] + C1CN(CCC1(C(=O)N[C@@H](CCO)C2=CC=C(C=C2)Cl)N)C3=NC=NC4=C3C=CN4 [Capivasertib] (first compound max 1 µM, 7x7, partner max 3 µM) |  | 0.636 | 0.154 | 0.277 | 0.317 | 0.681 | 0.361 |  |
| CC1(C)CCC(CN2CCN(c3ccc(C(=O)NS(=O)(=O)c4ccc(NCC5CCOCC5)c([N+](=O)[O-])c4)c(Oc4cnc5[nH]ccc5c4)c3)CC2)=C(c2ccc(Cl)cc2)C1 [Venetoclax] + C=CCn1c(=O)c2cnc(Nc3ccc(N4CCN(C)CC4)cc3)nc2n1-c1cccc(C(C)(C)O)n1 [AZD1775] (first compound max 1 µM, partner max 1 µM) |  | 0.847 | 0.453 | 0.483 | 0.378 | 0.673 | 0.942 |  |
| CC1(C)CCC(CN2CCN(c3ccc(C(=O)NS(=O)(=O)c4ccc(NCC5CCOCC5)c([N+](=O)[O-])c4)c(Oc4cnc5[nH]ccc5c4)c3)CC2)=C(c2ccc(Cl)cc2)C1 [Venetoclax] + CCN(CCO)CCCOc1ccc2c(Nc3cc(CC(=O)Nc4cccc(F)c4)[nH]n3)ncnc2c1 [AZD2811] (first compound max 1 µM, 7x7, partner max 1 µM) |  | 0.527 | 0.204 | 0.264 | 0.306 | 0.652 | 0.792 |  |
| CC1(C)CCC(CN2CCN(c3ccc(C(=O)NS(=O)(=O)c4ccc(NCC5CCOCC5)c([N+](=O)[O-])c4)c(Oc4cnc5[nH]ccc5c4)c3)CC2)=C(c2ccc(Cl)cc2)C1 [Venetoclax] + CN(C)CCCOc1ccc(-c2ccc3ncc4c(c3c2)n(C2CCOCC2)c(=O)n4C)cn1 [AZD0156] (first compound max 1 µM, 7x7, partner max 1 µM) |  | 0.3 | 0.199 | 0.25 | 0.199 | 0.594 | 0.25 |  |
| CC1(C)CCC(CN2CCN(c3ccc(C(=O)NS(=O)(=O)c4ccc(NCC5CCOCC5)c([N+](=O)[O-])c4)c(Oc4cnc5[nH]ccc5c4)c3)CC2)=C(c2ccc(Cl)cc2)C1 [Venetoclax] + COc1cc(Nc2ncc3c(n2)-c2ccc(Cl)cc2C(c2c(F)cccc2OC)=NC3)ccc1C(=O)O [Alisertib] (first compound max 1 µM, 7x7, partner max 10 µM) |  | 0.927 | 0.244 | 0.364 | 0.329 | 0.573 | 0.692 |  |
| CC1(C)CCC(CN2CCN(c3ccc(C(=O)NS(=O)(=O)c4ccc(NCC5CCOCC5)c([N+](=O)[O-])c4)c(Oc4cnc5[nH]ccc5c4)c3)CC2)=C(c2ccc(Cl)cc2)C1 [Venetoclax] + C[C@@H]1COCCN1C2=NC(=NC(=C2)C3(CC3)[S@](=N)(=O)C)C4=C5C=CNC5=NC=C4 [AZD6738] (first compound max 1 µM, 7x7, partner max 10 µM) |  | 0.827 | 0.319 | 0.689 | 0.777 | 0.702 | 0.882 |  |
| CC1(C)CCC(CN2CCN(c3ccc(C(=O)NS(=O)(=O)c4ccc(NCC5CCOCC5)c([N+](=O)[O-])c4)c(Oc4cnc5[nH]ccc5c4)c3)CC2)=C(c2ccc(Cl)cc2)C1 [Venetoclax] + C[C@@H](Nc1cc(F)cc(F)c1)c1cc(C(=O)N(C)C)cc2c(=O)cc(N3CCOCC3)oc12 [AZD8186] (first compound max 1 µM, 7x7, partner max 3 µM) |  | 0.682 | 0.194 | 0.113 | 0.0955 | 0.531 | 0.335 |  |
| CC1(C)CCC(CN2CCN(c3ccc(C(=O)NS(=O)(=O)c4ccc(NCC5CCOCC5)c([N+](=O)[O-])c4)c(Oc4cnc5[nH]ccc5c4)c3)CC2)=C(c2ccc(Cl)cc2)C1 [Venetoclax] + Cc1cc2ncnn2cc1Nc1ncc2c(n1)n(C1CCOCC1)c(=O)n2C [AZD7648] (first compound max 1 µM, 7x7, partner max 10 µM) |  | 0.473 | 0.219 | 0.209 | 0.245 | 0.601 | 0.255 |  |
| CC1(C)CCC(CN2CCN(c3ccc(C(=O)NS(=O)(=O)c4ccc(NCC5CCOCC5)c([N+](=O)[O-])c4)c(Oc4cnc5[nH]ccc5c4)c3)CC2)=C(c2ccc(Cl)cc2)C1 [Venetoclax] + Cn1cnc2c(F)c(Nc3ccc(Br)cc3Cl)c(C(=O)NOCCO)cc21 [Selumetinib] (first compound max 1 µM, 7x7, partner max 3 µM) |  | 0.318 | 0.364 | 0.245 | 0.646 | 0.436 | 0.239 |  |
